Data: US20220079931A1, “ESTROGEN RECEPTOR PROTEIN DEGRADERS” (THE REGENTS OF THE UNIVERSITY OF MICHIGAN, priority 2019, published 2022)

How the values were obtained:
MDA-MB-231 = assay: Cell proliferation in triple-negative breast cancer cells; assay type: cell-based, human; settings: MDA-MB-231 triple-negative breast cancer cells
Experimental: Cell Growth Assay. Cells were seeded at 1500/well in 96 well plates overnight. One day after seeding, they were treated with indicated doses of compounds. The growth of the cells was evaluated by colorimetric WST-8 assay 4 days after the compound treatment following the instructions of the manufacturer, Cayman Chemical, Ann Arbor, Mich.
Fulvestrant achieves an Imax value of 43.8%. […] RAD1901, a previously reported SERD molecule^18, achieves an Imax value of 25.7%.

ERα = target: T1, ERα (Homo sapiens, UniProt P03372); assay: Mechanism of ER degradation: pretreatment with VHL ligand, ER ligand or proteasome inhibitor, Western blotting in MCF-7 cells; assay type: cell-based; design: host or cells: MCF-7; settings: 32 at 30 nM 4 h
T1 sequence (P03372 1-595): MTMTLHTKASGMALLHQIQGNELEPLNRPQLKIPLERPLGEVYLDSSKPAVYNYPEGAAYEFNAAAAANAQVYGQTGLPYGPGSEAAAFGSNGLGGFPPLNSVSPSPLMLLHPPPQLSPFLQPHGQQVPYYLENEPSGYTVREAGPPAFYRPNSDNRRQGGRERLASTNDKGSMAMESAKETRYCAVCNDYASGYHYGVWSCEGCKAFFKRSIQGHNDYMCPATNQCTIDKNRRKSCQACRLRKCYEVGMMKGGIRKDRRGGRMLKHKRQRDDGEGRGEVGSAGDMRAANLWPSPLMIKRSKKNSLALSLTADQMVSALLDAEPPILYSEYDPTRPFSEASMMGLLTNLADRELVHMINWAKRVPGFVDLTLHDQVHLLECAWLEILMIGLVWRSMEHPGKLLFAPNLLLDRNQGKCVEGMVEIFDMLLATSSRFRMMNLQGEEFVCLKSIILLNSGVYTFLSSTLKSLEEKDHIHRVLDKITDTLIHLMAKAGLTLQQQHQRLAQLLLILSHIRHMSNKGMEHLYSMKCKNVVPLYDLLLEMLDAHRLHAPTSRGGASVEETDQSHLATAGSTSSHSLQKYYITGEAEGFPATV
Experimental: (§1) Then whole-cell lysates were analyzed by Western blotting.
as §1
Western Blot Analysis. […] Cells treated with indicated compounds were lysed in Radioimmunoprecipitation Assay Protein Lysis and Extraction Buffer (25 mmol/L Tris.HCl, pH 7.6, 150 mmol/L NaCl, 1% Nonidet P-40, 1% sodium deoxycholate, and 0.1% sodium dodecyl sulfate) containing proteinase inhibitor cocktail (Roche Diagnostics, Mannheim, Germany). After determination of protein concentration by BCA assay (Fisher Scientific, Pittsburgh, Pa.), equal amounts of total protein were electrophoresed through 10% SDS-polyacrylamide gels. The separated protein bands were transferred onto PVDF membranes (GE Healthcare Life Sciences, Marlborough, Mass.) and blotted against different antibodies, as indicated. The human estrogen receptor a antibodies (AB16460) were purchased from Abeam, Inc., Cambridge, Mass. The membranes were reblotted with horseradish peroxidase-conjugated anti-glyceraldehyde-3-phosphate dehydrogenase antibody (G9295) from Sigma-Aldrich Corporation, St. Louis, Mo. The blots were scanned and the band intensities were quantified using GelQuant.NET software as described in biochemlabsolutions.com. The relative mean intensity of target proteins was expressed after normalization to the intensity of glyceraldehyde-3-phosphate dehydrogenase bands from individual repeats.

[1] = system: mRNA levels of pGR and GREB1; assay: qRT-PCR of ER-regulated genes in MCF-7 cells
MCF-7 cells = assay: Crystal violet staining experiment in MCF-7 cells; settings: 10 nM, 100 nM and 300 nM, versus raloxifene and fulvestrant

For `CCN(CCCCCOCC(=O)N[C@H](C(=O)N1C[C@H](O)C[C@H]1C(=O)N[C@@H](C)c1ccc(-c2scnc2C)cc1)C(C)(C)C)CCOc1ccc(C(=O)c2c(-c3ccc(O)cc3)sc3cc(O)ccc23)cc1` [compound 32, (2S,4R)-1-((S)-2-(2-((5-(Ethyl(2-(4-(6-hydroxy-2-(4-hydroxyphenyl)benzo[b]thiophene-3-carbonyl)phenoxy)ethyl)amino)pentyl)oxy)acetamido)-3,3-dimethylbutanoyl)-4-hydroxy-N—((S)-1-(4-(4-methylthiazol-5-yl)phenyl)ethyl)pyrrolidine-2-carboxamide], the cell proliferation inhibition (MDA-MB-231) was “does not exhibit the cell proliferation inhibition effects”, the “blocking of ER degradation by compound 32 with 1 μM VHL ligand 11” value (ERα; 1 μM VHL ligand 11 pretreatment 2 h) was “only slightly” and the “ER degradation induced by compound 32 on addition of carfilzomib” value (ERα; 1 μM proteasome inhibitor carfilzomib pretreatment 2 h) was “significantly reduced”. For the same compound, the “ER degradation induced by compound 32 on addition of raloxifene” value (ERα; 1 μM raloxifene pretreatment 2 h) was “significantly reduced”, the “blocking of ER degradation by compound 32 with 5 μM or 10 μM VHL ligand 11” value (ERα; 5 μM or 10 μM of 11 pretreatment 2 h) was “completely blocked” and the “suppression of pGR and GREB1 expression compared with fulvestrant” value ([1]; 10 nM and 100 nM) was “slightly more effective than fulvestrant”. For the same compound, the “suppression of pGR and GREB1 expression compared with raloxifene” value ([1]; 10 nM and 100 nM) was “significantly more effective than raloxifene”, the “suppression of expression of pGR and GREB1” value ([1]; qRT-PCR) was “strongly suppressed” and the “reduction of cell proliferation (crystal violet staining)” value (MCF-7 cells) was “reduced cell proliferation more significantly than raloxifene or fulvestrant”.
